{"source": "patent US8034796B2", "about": "“Glucosamine and glucosamine/anti-inflammatory mutual prodrugs, compositions, and methods” (The University of Georgia Research Foundation, Inc., priority 2004, dated 2011)", "key": {"[1]": {"conditions": "cited from earlier work"}, "[2]": {"conditions": "literature; cited from earlier work"}, "[3]": {"type": "in vitro ADME, snake", "method": "In vitro transport (diffusion) was evaluated by Franz cell diffusion experiments using shed snakeskin. Shed snakeskin is widely recognized as a sufficient model membrane to human skin for preliminary permeability studies due to the similarity in its composition to the human stratum corneum.\nThe shed snakeskin was hydrated in 0.1% aqueous sodium azide solution for 48 hours at room temperature. The skins were mounted to three Franz receptor cells filled with 0.1 M pH7 phosphate buffer. The receptor solution was maintained at 37° C. and stirred with a magnetic stirrer. The donor cells were clamped to each receptor cell, with the skin mounted between the receptor and donor cells, and the donor cells were filled with 100 milligrams (mg) each of glucosamine HCl (e.g., cell 1), N-acetyl glucosamine (e.g., cell 2), and glucosamine pentaacetyl (e.g., cell 3) in a 1 milliliter (ml) DMSO solution. The skin surface exposed to diffusion was 2.54 cm^2 (1.8 cm diameter) and the receptor cell volume was 6 cm^3. The system was allowed to equilibrate for two hours before samples were taken.\nTwenty microliter (μl) samples of receptor solution were taken at 5, 10, 20, 40, 80, 160, and 240 minute intervals and replaced with fresh buffer. A ten μl aliquot of each sample was analyzed by high performance liquid chromatography with pulsed electrochemical detection."}, "[4]": {"experiment": "Oil/water partition coefficient, n-hexane/phosphate buffer", "type": "physicochemical", "conditions": "37° C., 24 hours", "method": "The oil/water partition coefficient for NAG was determined using n-hexane/phosphate buffer (pH 5.5 6, 6.73, and 7.4, 0.1 M) and n-hexane/water (Bemacki et al., J. Supramolecular Structure, 7:235-250 (1977)). In each case 5 ml of n-hexane was mixed with aqueous solutions containing NAG and shaken at 37° C. for 24 hours. The mixture was afterwards centrifuged and the organic and aqueous phases separated. The NAG concentration in the filtrates was determined by HPAE-PAD after the appropriate dilution."}, "[5]": {"experiment": "In-vitro membrane permeation of NAG through shed snakeskin (Franz cell; enhancers, DMSO, ethanol/buffer)", "type": "in vitro ADME, snake", "source_text": "Shed snakeskins were used as a model membrane for permeation studies using the NAG suspensions in known membrane permeation enhancers; ethanol, oleic acid, isopropyl myristate, and isopropyl palmitate; saturated solutions of NAG in water and in phosphate buffer; as well as in a saturated DMSO solution and phosphate buffer (pH 5.5) containing ethanol at 2%, 5%, 10%, 25%, and 50% solutions.\nThe skins were hydrated in 0.1% aqueous sodium azide solution at room temperature for 48 hrs. Franz-cell diffusions experiments were carried out. In general the receptor cell was filled with 7.4 pH 0.1 M phosphate buffer and the donor cell filled with a solution or suspension. For the phosphate buffer (pH 5.5) containing ethanol at 2%, 5%, 10%, 25%, and 50% solutions in the donor phase, the receptor phase consisted of phosphate buffer (pH 5.5, 0.1 M). The receptor solution was maintained at 37° C. and stirred with a magnetic stirrer.\nThe snake skins were mounted between the receptor and donor cells. The surface exposed to diffusion was 2.54 cm^2 (diameter 1.8 cm) and the receptor cell volume was 6 cm^3. The donor cell was covered with plastic film. The system was allowed to equilibrate at 37° C. for two hours before each experiment. To the donor cells, 5 ml of the NAG-enhancer suspension or solution was added. Samples were taken at intervals over a 24-hour period, 200-μl samples of receptor solutions were taken and replaced with fresh buffer; experiments were conducted in triplicate. The amounts of NAG that permeated through the snakeskin were determined by HPAE-PAD.\nSteady state flux (Jss) for NAG (mg/cm^2/h) was calculated from its increasing amount in the receptor medium (Bach et al., Eur. J. Pharm. Biopharm, 46:1-13 (1998)). NAG's permeability coefficient (kp) in cm/h was calculated from known physiochemical parameters, (Hadgraft et al., “Feasibility Assessment in Topical and Transdermal Delivery: Mathematical Models and In Vitro Studies,” in Transdermal Drug Delivery. 2nd Ed. Marcel Dekker, Inc., pages 1-23 (2003)). Lag time (tlag) was determined graphically from the cumulative amount of drug released per unit area (mg/cm^2) versus time plots. A square root of time (t^1/2) versus cumulative amount of drug released per unit area (mg/cm^2) was obtained to monitor NAG in vitro release rate (mg/cm^2), (Guidance for Industry: SUPAC-SS Semisolid Dosage Forms. Scale-up and Postapproval Changes Chemistry, Manufacturing, and Control; In Vitro Release Testing and In Vivo Bioequivalence Documentation. US Department of Health and Human Services, Food and Drug Administration, Center for. Drug Evaluation and Research, May 1997)."}, "[6]": {"experiment": "In-vitro membrane permeation of NAG from lecithin suspensions and pluronic organo-gel formulations across shed snakeskin", "type": "in vitro ADME, snake", "method": "Twenty percent poloxamer 407 (PLURONIC F127; Polyethylene-Polypropylene Glycol) gels were made by standard methods e.g. dissolving the poloxamer into cold water under refrigeration for 24 hours to produce the pluronic gel phase. NAG was incorporated into the pluronic gel phase. The final formulations were prepared via the emulsification of the select organic phase with the pluronic gel phase using luer-lock connected syringes.\nShed snakeskins were used as the model membrane for these permeation studies using the NAG semi-solid gel formulations. The skins were hydrated in 0.1% aqueous sodium azide solution at room temperature for 48 hrs. Franz-cell diffusions experiments were carried out. In general the receptor cell was filled with a 7.4 pH 0.1 M phosphate buffer. The receptor solution was maintained at 37° C. and stirred with a magnetic stirrer. The snakeskins were mounted between the receptor and donor cells. The surface exposed to diffusion was 2.54 cm^2 (diameter 1.8 cm) and the receptor cell volume was 6 cm^3. The donor cell was covered with plastic film. The system was allowed to equilibrate at 37° C. for two hours before each experiment. The donor cells were filled with a 5 ml of the semisolid NAG pluronic-organo-gel formulation. Samples (N=3) were taken at intervals over a 48-hour period, 200-μl samples of receptor solutions were taken and replaced with fresh buffer; experiments were conducted in triplicate. The amounts of NAG that permeated through the snakeskin were determined by HPAE-PAD.\nSteady state flux (Jss) for NAG (mg/cm^2/h) was calculated from its increasing amount in the receptor medium (Bach et al., Eur. J. Pharm. and Biopharm., 46:1-13 (1998)). NAG's permeability coefficient (kp) in cm/h was calculated from known physiochemical parameters (Hadgraft et al., “Feasibility Assessment in Topical and Transdermal Delivery: Mathematical Models and In Vitro Studies,” in Transdermal Drug Delivery, 2nd Ed. Marcel Dekker, Inc., pages 1-23 (2003)). Lag time (tlag) was determined graphically from the cumulative amount of drug released per unit area (mg/cm^2) versus time (h) plots. A square root of time (t^1/2) versus cumulative amount of drug released per unit area (mg/cm^2) was obtained to monitor NAG in vitro release rate (mg/cm^2) (Guidance for Industry: SUPAC-SS Semisolid Dosage Forms. Scale-up and Postapproval Changes Chemistry, Manufacturing, and Control; In Vitro Release Testing and In Vivo Bioequivalence Documentation. US Department of Health and Human Services, Food and Drug Administration, May 1997)."}, "[7]": {"experiment": "Solubility measurements of NAG", "type": "physicochemical", "method": "The solutions were centrifuged for 5 min at 9000 rev/min and the supernatant filtered with cellulose acetate membrane filters (0.45 μm pore size) (Dionex, Sunnyvale Calif.). The NAG concentration in each filtrate was determined by HPAE-PAD after the appropriate dilution."}, "[8]": {"conditions": "cited from earlier work", "remark": "listed apart in the source"}, "[9]": {"conditions": "cited from earlier work", "remark": "listed apart in the source"}, "[10]": {"conditions": "phosphate buffer (pH 5.5) with 2% ethanol"}, "[11]": {"conditions": "phosphate buffer (pH 5.5) with 5% ethanol"}, "[12]": {"conditions": "phosphate buffer (pH 5.5) with 10% ethanol"}, "[13]": {"conditions": "phosphate buffer (pH 5.5) with 25% ethanol"}, "[14]": {"conditions": "phosphate buffer (pH 5.5) with 50% ethanol"}, "[15]": {"conditions": "saturated DMSO donor, pH 7.4 phosphate buffer receptor"}, "[16]": {"conditions": "lecithin-vitamin E (1:1) suspension"}}, "note": "Like-named read-outs stand apart in the source and are kept apart here.", "data": [{"smiles": "CN1CC[C@]23c4c5ccc(O)c4O[C@H]2C(=O)CC[C@@]3(O)[C@H]1C5", "note": "[oxymorphone]", "values": [{"measurement": "octanol-water partition coefficient", "setting": "[1]; pH 7.4", "value": 0.0}]}, {"smiles": "CC(C)Cc1ccc(C(C)C(=O)O)cc1", "note": "(stereo not shown) [ibuprofen]", "values": [{"measurement": "transport across shed snake skin", "setting": "[2]", "value": "transported"}]}, {"smiles": "CCC(NC(C)C)C(O)c1ccc(O)c2[nH]c(=O)ccc12", "note": "(stereo not shown) [procaterol]", "values": [{"measurement": "octanol-water partition coefficient", "setting": "[1]; pH 7.7", "value": "−0.37"}]}, {"smiles": "CC(=O)N[C@H]1C(O)O[C@H](CO)[C@@H](O)[C@@H]1O", "note": "(stereo partly drawn) [NAG, N-acetyl-D-glucosamine]", "values": [{"measurement": "transport across shed snake skin", "setting": "[3]", "value": "highly transported"}, {"measurement": "transport (receptor cell volume analyzed)", "setting": "[3]; snake, 100 mg/ml, pH 7", "value": "over 50%"}, {"measurement": "partition coefficient n-hexane/pH 5.5 buffer", "setting": "[4]", "value": 0.252}, {"measurement": "partition coefficient n-hexane/pH 6.0 buffer", "setting": "[4]", "value": 0.194}, {"measurement": "partition coefficient n-hexane/pH 6.73 buffer", "setting": "[4]", "value": 0.092}, {"measurement": "partition coefficient n-hexane/pH 7.4 buffer", "setting": "[4]", "value": 0.091}, {"measurement": "NAG transport from suspensions of membrane permeability enhancers", "setting": "[5]; ethanol, oleic acid, isopropyl myristate and isopropyl palmitate suspensions", "value": "Negligible"}, {"measurement": "In Vitro release rate", "setting": "[5]; [10]", "value": 286.03, "unit": "μg/cm^2"}, {"measurement": "Jss", "setting": "[5]; [10]", "value": 112.61, "unit": "mg/cm^2/h"}, {"measurement": "In Vitro release rate", "setting": "[5]; [11]", "value": 303.61, "unit": "μg/cm^2"}, {"measurement": "Jss", "setting": "[5]; [11]", "value": 119.53, "unit": "mg/cm^2/h"}, {"measurement": "In Vitro release rate", "setting": "[5]; [12]", "value": 537.49, "unit": "μg/cm^2"}, {"measurement": "Jss", "setting": "[5]; [12]", "value": 211.61, "unit": "mg/cm^2/h"}, {"measurement": "In Vitro release rate", "setting": "[5]; [13]", "value": 523.06, "unit": "μg/cm^2"}, {"measurement": "Jss", "setting": "[5]; [13]", "value": 205.93, "unit": "mg/cm^2/h"}, {"measurement": "In Vitro release rate", "setting": "[5]; [14]", "value": 198.02, "unit": "μg/cm^2"}, {"measurement": "Jss", "setting": "[5]; [14]", "value": 77.96, "unit": "mg/cm^2/h"}, {"measurement": "In Vitro release rate", "setting": "[5]; [15]", "value": 186.64, "unit": "mg/cm^2"}, {"measurement": "Jss", "setting": "[5]; [15]", "value": 73.48, "unit": "mg/cm^2/h"}, {"measurement": "lag time", "setting": "[5]; saturated DMSO solution", "value": "no lag time"}, {"measurement": "in vitro release rate", "setting": "[5]; saturated DMSO solution, FIG. 13", "value": 73.48, "unit": "μg/cm^2"}, {"measurement": "Papp", "setting": "[5]; snake, calculated from known physiochemical parameters, read-out: permeability coefficient kp (converted)", "value": 203, "unit": "×10⁻⁶ cm/s"}, {"measurement": "permeation from aqueous solutions", "setting": "[5]; water or phosphate buffer solutions (pH 5.5, 6.0, 6.73, and 7.4; 0.1 M)", "value": "No permeation"}, {"measurement": "transport in aqueous only vehicles", "setting": "[6]; experiments not reported here", "value": "not transported"}, {"measurement": "NAG transport from suspensions", "setting": "[6]; lecithin-isopropyl palmitate and vitamin E suspensions (100 mg/ml)", "value": "Negligible (below the limit of detection)"}, {"measurement": "Release rate", "setting": "[6]; [16]", "value": 13.71, "unit": "μg/cm^2"}, {"measurement": "steady state flux Jss", "setting": "[6]; [16]", "value": 4.23, "unit": "μg/cm^2/h"}, {"measurement": "Papp", "setting": "[6]; snake, pH 7.4, lecithin-vitamin E (1:1) suspension, read-out: permeability coefficient kp (converted)", "value": 1.39, "unit": "×10⁻⁶ cm/s"}, {"measurement": "solubility", "setting": "[7]; ethanol", "value": "insignificantly soluble"}, {"measurement": "solubility", "setting": "[7]; phosphate buffer", "value": "highly soluble"}, {"measurement": "pKa", "setting": "[8]", "value": 6.73}, {"measurement": "octanol-water partition coefficient", "setting": "[1]; pH 7.4", "value": 0.017}]}, {"smiles": "Cl.N[C@H]1C(O)O[C@H](CO)[C@@H](O)[C@@H]1O", "note": "(stereo partly shown) [glucosamine HCl, Glucosamine HCl, reference compound]", "values": [{"measurement": "transport across shed snake skin", "setting": "[3]", "value": "not transported"}]}, {"smiles": "N[C@H]1C(O)O[C@H](CO)[C@@H](O)[C@@H]1O", "note": "(stereo partly shown) [glucosamine]", "values": [{"measurement": "bioavailability", "setting": "[9]; oral administration", "value": "12-13%"}, {"measurement": "oral dose absorbed and excreted", "setting": "[9]; oral dose", "value": "approximately 87%"}, {"measurement": "oral dose reaching osteoarthritic joints", "setting": "[9]; oral dose", "value": "< 1", "unit": "%"}, {"measurement": "oral dose widely distributed in the body", "setting": "[9]; oral dose", "value": "< 13", "unit": "%"}]}]}
